The record followed here is PubChem BioAssay AID1996.

Molecules are shown by their SMILES. Converted amounts (≈) assume the structure as drawn.

For this data set the following is noted: buffer; pH 7.4; 200.0 µM.
In turn, `Cc1ccc(NC(=O)C(C)OC(=O)CSc2ccccc2)cc1` (stereo unspecified) yielded a kinetic solubility of more than 49.4 µg/mL. On to `Cc1ccc(OCC(=O)Nc2ccc3oc(=O)ccc3c2)cc1`, for which the kinetic solubility was 1.7 µg/mL (≈ 5.5 µM). In turn, `Cc1ccc(NC(=O)Nc2ncnc3nc[nH]c23)cc1` showed a kinetic solubility of 6.3 µg/mL (≈ 23.5 µM). `CC(C)[C@H](NC(N)=O)C(=O)NCCc1ccc(Cl)cc1`: the solubility (kinetic) is more than 44.7 µg/mL. `O=C(NCc1ccco1)Nc1ccc(OC(F)(F)F)cc1` had a solubility (kinetic) of 11.1 µg/mL (≈ 37 µM). `CCOCC(=O)OCC(=O)NC12CC3CC(CC(C3)C1)C2` came in with a solubility (kinetic) of more than 44.3 µg/mL. `Cc1cccc(N/C=C/C(=O)c2ccc(Cl)cc2)c1` yielded a solubility (kinetic) of less than 0.6 µg/mL.

`C=CCn1c(SCc2ccccc2)nc2c1c(=O)[nH]c(=O)n2C`: the kinetic solubility was determined as 25 µg/mL (≈ 76.1 µM). `O=C(CS(=O)(=O)c1ccccc1)N1CCCCC1` displayed a solubility (kinetic) of more than 40.1 µg/mL.

Consider `COCC(=O)Nc1cc(C)cn(Cc2ccc(F)cc2)c1=O`, for which the kinetic solubility is more than 45.6 µg/mL. The compound `Cc1ccnc(N2CCC(C(=O)Nc3ccc4c(c3)OCCO4)CC2)n1` returned a kinetic solubility of 13.6 µg/mL (≈ 38.4 µM).

On to `Cc1ccc(CN2CCN(C(=O)CC(C)C)CC2)cc1`, for which the kinetic solubility stood at 25.1 µg/mL (≈ 91.5 µM). The figure for `S=c1[nH]c(-c2ccccc2)cn1-c1ccccc1` is 14.9 µg/mL (≈ 59 µM); for `Cc1cc(C)nc(NC(=O)c2ccc(Cl)c([N+](=O)[O-])c2)n1` it is 22.1 µg/mL (≈ 72.1 µM). The figure for `C=CCNc1nc(-c2c(C)nc3ncccn23)cs1` is more than 40.7 µg/mL; for `O=S(=O)(c1ccc(Cl)cc1)N1CCCc2ccccc21` it is 3.7 µg/mL (≈ 12 µM); for `O=C(COC(=O)COc1ccc(Br)cc1)NC1CCCC1` it is 13.3 µg/mL (≈ 37.3 µM). The compound `O=C(CCc1ccccc1)NC(=S)NCc1ccco1` registered a solubility (kinetic) of 2.7 µg/mL (≈ 9.36 µM). The figure for `COc1ccc(S(=O)(=O)N2CCSCC2)cc1` is more than 41 µg/mL; for `O=[N+]([O-])c1ccc(N(CC2CO2)S(=O)(=O)c2ccccc2)cc1` (stereo unspecified) it is 41.9 µg/mL (≈ 125 µM).

In turn, `CCOC(=O)Cc1cc(=O)[nH]c(/N=C(\N)Nc2ccc(OC)cc2)n1` came in with a solubility (kinetic) of 6.2 µg/mL (≈ 18 µM). As to `Cc1onc(-c2c(F)cccc2Cl)c1C(=O)N1CCSCC1`, the solubility (kinetic) is more than 51.1 µg/mL.

For `Cc1ccc(S(=O)(=O)N2CCCCC2)cc1NC(=O)COC(=O)c1cccn1C`, the kinetic solubility stood at 9 µg/mL (≈ 21.5 µM). As to `O=C(NN1CCOCC1)c1cccc(F)c1`, the solubility (kinetic) is more than 33.6 µg/mL. The compound `COC(=O)Cn1c2ccc(Cl)cc2c2nc(C)sc21` gave a kinetic solubility of 35.3 µg/mL (≈ 120 µM). Consider `Cc1ccc(C2Nc3ccccc3C(=O)N2CCN2CCNC2=O)cc1` (stereo unspecified), for which the solubility (kinetic) was more than 52.6 µg/mL.

In turn, `COc1ccccc1C(=O)Nc1ccncc1` returned a solubility (kinetic) of 33.4 µg/mL (≈ 146 µM). `Cc1ccc(C(=O)NC(=S)N(C)C2CCCCC2)cc1Br` registered a kinetic solubility of 1.1 µg/mL (≈ 2.98 µM). The value for `CN(c1ccc(OCCOc2ccccc2Cl)cc1)S(=O)(=O)c1ccccc1` was 6.2 µg/mL (≈ 14.8 µM); that for `CC(C)c1nc(SCC(=O)c2ccc(F)cc2)c2ccccc2n1` was 1.7 µg/mL (≈ 4.99 µM).

Compound `CC(=O)c1ccc(NC(=S)NCCCN2CCOCC2)cc1` returned a kinetic solubility of more than 48.2 µg/mL. For the compound `COc1cccc(CNC(=O)CCCC(=O)Nc2cccc([N+](=O)[O-])c2)c1`, the kinetic solubility is more than 55.7 µg/mL.

The compound `O=C(CNS(=O)(=O)c1cccs1)N1CCCCC1` had a kinetic solubility of more than 43.3 µg/mL. In turn, `Cc1cc(C(=O)NC2CCCc3ccccc32)ccc1[N+](=O)[O-]` (stereo unspecified) came in with a solubility (kinetic) of 10.3 µg/mL (≈ 33.2 µM). The compound `CCC1Sc2ccccc2N(CC(=O)NC2CC2)C1=O` (stereo unspecified) gave a solubility (kinetic) of 39.6 µg/mL (≈ 136 µM).

`COc1ccccc1C(=O)Nc1cccc2cccnc12` displayed a kinetic solubility of less than 0.3 µg/mL. The compound `O=Cc1cn(CCOc2ccccc2)c2ccccc12` showed a solubility (kinetic) of 12.9 µg/mL (≈ 48.6 µM). `CCCNC(=O)C/C(C)=N/NC(=O)C(=O)Nc1ccccn1` gave a kinetic solubility of more than 45.8 µg/mL.

`O=C(NCc1ccccn1)Nc1cccc(Cl)c1Cl` registered a solubility (kinetic) of more than 44.4 µg/mL. In the case of `O=C1N=C(N2CCc3ccccc3C2)S/C1=C\c1ccc(O)cc1`, the kinetic solubility was 3.4 µg/mL (≈ 10.1 µM). Take `CCCC(C)NC(=O)Cc1ccccc1` (stereo unspecified): the solubility (kinetic) is 30 µg/mL (≈ 146 µM). On to `CCOC(=O)Nc1cccnc1Sc1ccc(Cl)cc1`, for which the kinetic solubility was found to be 35.1 µg/mL (≈ 114 µM). The value for `COc1cccc(CNC(=O)CCNC(=O)c2ccco2)c1` was more than 45.3 µg/mL; that for `CN1C(=O)/C(=C/c2ccc(OCc3cccc(F)c3)cc2)NC1=S` was less than 0.4 µg/mL; that for `S=C1CSc2ccccc2N1` was 25.1 µg/mL (≈ 138 µM). Compound `O=c1[nH]cccc1-c1nc2ccccc2n1Cc1ccc(F)cc1` returned a kinetic solubility of 47.7 µg/mL (≈ 149 µM). The compound `Cc1cc(C)c(/C=C(\C#N)S(=O)(=O)c2ccccc2)[nH]1` gave a kinetic solubility of 0.5 µg/mL (≈ 1.75 µM). Consider `C/C(=N/NC(=O)CNC(=O)c1ccncc1)c1ccco1`, for which the kinetic solubility was more than 42.9 µg/mL.

The compound `NC(=O)c1ccc(NC(=O)CNC(c2ccccc2)c2ccccc2)cc1` came in with a solubility (kinetic) of 3.7 µg/mL (≈ 10.3 µM). Compound `CCCN1CCN(S(=O)(=O)c2ccc3c(c2)CCC(=O)N3)CC1` showed a kinetic solubility of more than 50.6 µg/mL. Consider `CCOc1ccc(C=NCC(O)c2ccccc2)cc1` (stereo unspecified), for which the solubility (kinetic) is 37 µg/mL (≈ 137 µM). The compound `CC(C)(CNS(=O)(=O)c1cccs1)N1CCOCC1` had a kinetic solubility of more than 45.7 µg/mL.

With `O=C(COc1nncc2ccccc12)NCC(F)(F)F`, the solubility (kinetic) is more than 42.8 µg/mL. For `O=C(Cc1ccccc1)NC(Cc1ccc(Cl)cc1)C(=O)O` (stereo unspecified), the solubility (kinetic) is more than 47.7 µg/mL. On to `CC(C)(Oc1ccc(Cl)cc1)C(=O)N1CCC(C(N)=O)CC1`, for which the kinetic solubility came out at 48.7 µg/mL (≈ 150 µM). As for `CNC(=O)NC(=O)COc1c(F)c(F)cc(F)c1F`, the solubility (kinetic) amounted to 38.2 µg/mL (≈ 136 µM). `O=C1CSCC(=O)N1c1ncc(C(F)(F)F)cc1Cl` returned a kinetic solubility of 42 µg/mL (≈ 135 µM). For `CC(C)[C@H](NC(=O)c1ccccc1)C(=O)OCC(=O)NCC1CCCO1` (stereo partly specified), the solubility (kinetic) is more than 54.4 µg/mL.

`O=C(Nc1ccc([N+](=O)[O-])cc1)Nc1cnccn1` had a kinetic solubility of 2.9 µg/mL (≈ 11.2 µM). The figure for `CCCCC(=O)NC1(C(F)(F)F)NC(=O)N(C)C1=O` (stereo unspecified) is more than 42.2 µg/mL. Consider `CC(C)CC(=O)c1c[nH]c(C(=O)NCc2ccc(F)cc2)c1`, for which the kinetic solubility worked out at 0.7 µg/mL (≈ 2.32 µM). The value for `O=C(COC(=O)c1cc(=O)c2ccccc2o1)NCC1CCCCC1` was 33 µg/mL (≈ 96.1 µM). `OC(CN1CCN(c2ccccc2Cl)CC1)c1ccccc1` (stereo unspecified): the kinetic solubility is 41.4 µg/mL (≈ 131 µM). `O=C(COC(=O)c1cc(Cl)cc(Cl)c1)NCc1ccco1` had a solubility (kinetic) of 28.4 µg/mL (≈ 86.5 µM).

`COc1cc(-n2c(C)nc3cc(C(=O)O)ccc32)cc(OC)c1OC` registered a kinetic solubility of more than 51.4 µg/mL. The value for `O=C(Nc1cccc(Cl)c1)NC1CCS(=O)(=O)C1` (stereo unspecified) was 36.4 µg/mL (≈ 126 µM); that for `Nc1ccccc1Nc1nc2ccccc2[nH]1` was more than 33.6 µg/mL; that for `CCC(OC(=O)c1ccco1)C(=O)NCc1ccc(OC)cc1` (stereo unspecified) was more than 47.6 µg/mL. Take `O=C(CC(Nc1ccccc1)c1ccccc1)C1CC1` (stereo unspecified): the solubility (kinetic) is less than 0.6 µg/mL. Compound `COc1cccc(OCC(O)CNC(=O)c2oc3ccc(C)cc3c2C)c1` (stereo unspecified) yielded a kinetic solubility of 20.2 µg/mL (≈ 54.7 µM). The value for `COc1ccc(OCCCn2ccnc2)cc1.Cl` was 36 µg/mL. Compound `O=C(NCCCc1ccccc1)c1cccc(Br)c1` showed a kinetic solubility of 19 µg/mL (≈ 59.7 µM). The value for `Cc1ccc(OCC(=O)OCC(=O)NC2CC2)cc1C` was more than 41.6 µg/mL; that for `N#Cc1ccc(C(=O)Nc2cccc(S(=O)(=O)NC3=NCCC3)c2)cc1` was 23.7 µg/mL (≈ 64.3 µM); that for `CCCc1nc2ccccc2c(=O)n1CCc1ccccc1` was 1.7 µg/mL (≈ 5.81 µM). The value for `COC(=O)c1sc(SC)nc1N` was 30.4 µg/mL (≈ 149 µM).
